Reference: patent US6875778B2, “Alkylene-tethered bis-nitroiminoimidazolidines, process for preparing the same, and insecticides containing the same” (Gifu University, priority 2002, dated 2005)

tested on: common cockroach; test: insecticidal activity against the common cockroach (abdominal injection, minimum lethal dose); assay type: in vivo; conditions: MLD = minimum lethal dose (moles/insect) at which two of three male adult common cockroaches became paralyzed or died; 1 to 10 μl of 1% by weight methanol solution injected into abdomen
Protocol: The insecticidal activity against the common cockroach was tested for the compounds of Examples 1 to 14 and the compound of Comparative Example 1. Methanol solutions containing 1% by weight of each compound were prepared. 1 to 10 μl of the methanol solution were injected into the abdomens of 3 male adult common cockroaches. The concentration at which two of the three adult insects became paralyzed or died, namely the minimum lethal dose (MLD: moles/insect) was then investigated.

First: O=[N+]([O-])N=C1N(CCN2CCN(Cc3ccc(Cl)nc3)C2=N[N+](=O)[O-])CCN1Cc1ccc(Cl)nc1 [Comp. Exp. 1, 1,2-bis[(6-chloronicotinyl)-2-nitroiminoimidazolidin-3-yl]ethane, reference compound]
Second: O=[N+]([O-])N=C1N(CCCN2CCN(Cc3ccc(Cl)nc3)C2=N[N+](=O)[O-])CCN1Cc1ccc(Cl)nc1 [Exp. 1, 1,3-bis[(6-chloronicotinyl)-2-nitroiminoimidazolidin-3-yl]propane]
The “log (1/MLD)” value of the first is lower: 7.38 for the first, 8.31 for the second.

Compared with O=[N+]([O-])N=C1N(CCCCN2CCN(Cc3ccc(Cl)nc3)C2=N[N+](=O)[O-])CCN1Cc1ccc(Cl)nc1 [Exp. 2, 1,4-bis[(6-chloronicotinyl)-2-nitroiminoimidazolidin-3-yl]butane], O=[N+]([O-])N=C1N(CCCCCCN2CCN(Cc3ccc(Cl)nc3)C2=N[N+](=O)[O-])CCN1Cc1ccc(Cl)nc1 [Exp. 4, 1,6-bis[(6-chloronicotinyl)-2-nitroiminoimidazolidin-3-yl]hexane] is higher in “log (1/MLD)” value: 7.97 for the first, 8.65 for the second.

First: O=[N+]([O-])N=C1N(CCCCCCCN2CCN(Cc3ccc(Cl)nc3)C2=N[N+](=O)[O-])CCN1Cc1ccc(Cl)nc1 [Exp. 5, 1,7-bis[(6-chloronicotinyl)-2-nitroiminoimidazolidin-3-yl]heptane]
Second: O=[N+]([O-])N=C1N(CCCCCCCCN2CCN(Cc3ccc(Cl)nc3)C2=N[N+](=O)[O-])CCN1Cc1ccc(Cl)nc1 [Exp. 6, 1,8-bis[(6-chloronicotinyl)-2-nitroiminoimidazolidin-3-yl]octane]
The “log (1/MLD)” value of the first is higher: 8.55 for the first, 8.35 for the second.

O=[N+]([O-])N=C1N(CCCCCCCCCN2CCN(Cc3ccc(Cl)nc3)C2=N[N+](=O)[O-])CCN1Cc1ccc(Cl)nc1 [Exp. 7, 1,9-bis[(6-chloronicotinyl)-2-nitroiminoimidazolidin-3-yl]nonane] and O=[N+]([O-])N=C1N(CCCCCCCCCCN2CCN(Cc3ccc(Cl)nc3)C2=N[N+](=O)[O-])CCN1Cc1ccc(Cl)nc1 [Exp. 8, 1,10-bis[(6-chloronicotinyl)-2-nitroiminoimidazolidin-3-yl]decane] are within 0.2 log units of each other in “log (1/MLD)” value: 8.56 for the first, 8.43 for the second.

O=[N+]([O-])N=C1N(Cc2ccc(Cl)nc2)CCN1Cc1cccc(CN2CCN(Cc3ccc(Cl)nc3)C2=N[N+](=O)[O-])c1 [Exp. 12, 1,3-bis[(6-chloronicotinyl)-2-nitroiminoimidazolidin-3-yl]methylbenzene] and O=[N+]([O-])N=C1N(Cc2ccc(CN3CCN(Cc4ccc(Cl)nc4)C3=N[N+](=O)[O-])cc2)CCN1Cc1ccc(Cl)nc1 [Exp. 13, 1,4-bis[(6-chloronicotinyl)-2-nitroiminoimidazolidin-3-yl]methylbenzene] are within 0.2 log units of each other in “log (1/MLD)” value: 7.71 for the first, 7.57 for the second.

In the case of O=[N+]([O-])N=C1N(CCCCCCN2CCN(Cc3cnc(Cl)s3)C2=N[N+](=O)[O-])CCN1Cc1cnc(Cl)s1 [Exp. 14, 1,6-bis[1-(2-chloro-5-thiazolylmethyl)-2-nitroiminoimidazolidin-3-yl]hexane], the “log (1/MLD)” value is reported as 7.56.
